Laboratory results reported in PubChem BioAssay AID179 (DTP/NCI, 2004).
Activity calls are given as the source filed them.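 Rule for the calls: active = compounds giving half or more protection of infected cells from virus-caused growth loss, again on retest; inactive = the rest.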

Tested on: CEM cells HIV-1 protection, formazan growth assay
Experiment: NCI AIDS Antiviral Assay
Conditions: for IC50: measured here: growth of uninfected CEM cells
Procedure, shortened: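 Protection of CEM cells against HIV-1 measured as cell growth via soluble formazan read-out, with five concentrations tested on both infected and uninfected cells; failure to protect may reflect toxicity.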

SMILES: O=C1C(c2ccc3ccccc3n2)=C(O)c2ccccc21
- outcome: inactive

SMILES: O=S(=O)(O)c1cc(O)c2c(O)cc(S(=O)(=O)O)cc2c1
- EC50: 347 µM
- IC50: 550 µM

SMILES: COc1ccc2c(c1O)C1=CC(=O)CC[C@]13CCN(C)[C@H]3C2
- EC50: > 832 µM
- IC50: 661 µM

SMILES: O=C(CI)Nc1ccc2oc(=O)c(C(=O)O)cc2c1
- EC50: > 214 µM
- IC50: 23.4 µM

SMILES: OC1(O)/C=C\CCCCC/C=C\1
- EC50: > 200 µM
- IC50: 129 µM

SMILES: COc1ccc(/C=N/n2cnc3c(c2=O)SC(=C(C#N)C#N)N3c2ccccc2)cc1
- EC50: > 6.17 µM
- IC50: > 6.17 µM

SMILES: CC[C@H](C)[C@H](NC(=O)N(CCC#N)CCN(CCN(C(=O)N[C@@H](Cc1ccccc1)C(=O)OC)c1ccccc1)C(=O)N[C@H](C(=O)OC)C(C)C)C(=O)OC
- outcome: inactive

SMILES: CC(=O)/C(=C\N1CCNC1=S)C(=O)Nc1ccccc1
- EC50: > 200 µM
- IC50: > 200 µM

SMILES: O=c1c2ccccc2c2cc3ccc4c(=O)c5ccccc5c5cc6ccc1c2c6c3c45
- EC50: > 200 µM
- IC50: > 200 µM

SMILES: CCN(CC)C(c1ccc(N(C)C)cc1)C(c1ccc(N(C)C)cc1)N(CC)CC (stereo unspecified)
- EC50: > 158 µM
- IC50: 42.7 µM

SMILES: COC(=O)c1cc(=O)nc2n1C1OC(CO)C(O)C1O2 (stereo unspecified)
- EC50: > 200 µM
- IC50: > 200 µM

SMILES: CC1=C(O)C(=O)C=C2C1=CC=C1[C@@]2(C)CC[C@@]2(C)C3C[C@@H](C)C(=O)[C@@H](O)[C@]3(C)CC[C@]12C (stereo partly specified)
- EC50: > 1.26 µM
- IC50: 0.2 µM

SMILES: CN1/C(=C\N=O)C(C)(C)N(O)C1(C)C
- EC50: > 200 µM
- IC50: > 200 µM

SMILES: C(=C/C1CCCOC1)/CCc1ccccc1 (stereo unspecified)
- outcome: inactive

SMILES: CC(=O)N=c1ccc2nc(N)nn(O)c-2c1
- EC50: > 200 µM
- IC50: > 200 µM

SMILES: O=C(O)CC1CCN(C(=O)c2ccccc2)C(Cc2c[nH]c3ccccc23)C1O (stereo unspecified)
- EC50: > 126 µM
- IC50: > 126 µM

SMILES: CC(=O)SCC1OC(n2cc(C)c(=O)[nH]c2=O)CC1O (stereo unspecified)
- EC50: > 200 µM
- IC50: > 200 µM

SMILES: NCP1(=O)CNC(=O)NC1
- EC50: > 1510 µM
- IC50: > 1510 µM

SMILES: COc1cc2c(c(OC)c1OC)-c1ccc(=O)c(OC)cc1C(NC(C)=O)CC2 (stereo unspecified)
- outcome: inactive

SMILES: Clc1c(Cl)c(Cl)c2c(nnn2C2CCCO2)c1Cl (stereo unspecified)
- EC50: > 200 µM
- IC50: 33.1 µM

SMILES: CC(SSC(C)N1C(=O)c2ccccc2C1=O)N1C(=O)c2ccccc2C1=O (stereo unspecified)
- EC50: > 100 µM
- IC50: > 100 µM

SMILES: O=C1CCCCC(=O)OC2(CCCCC2=O)CC1 (stereo unspecified)
- EC50: > 200 µM
- IC50: > 200 µM

SMILES: C/C(=N/Nc1ccc([N+](=O)[O-])cc1[N+](=O)[O-])c1ccccc1
- EC50: > 3.47 µM
- IC50: > 3.47 µM

SMILES: COc1cc(C2C(C(=O)Nc3cc(F)c(F)cc3F)=C(C)NC(C)=C2C(=O)Nc2cc(F)c(F)cc2F)ccc1O
- EC50: > 32.4 µM
- IC50: > 32.4 µM

SMILES: CN=C(NC#N)NCc1ccccc1
- EC50: > 1320 µM
- IC50: 1200 µM

SMILES: O=C(O)c1cc(-c2c3ccc(=O)cc-3oc3cc(O)ccc23)c(C(=O)O)cc1-c1c2ccc(=O)cc-2oc2cc(O)ccc12
- EC50: > 200 µM
- IC50: > 200 µM

SMILES: O=[N+]([O-])c1ccc(S(=O)(=O)c2ccccc2)c([N+](=O)[O-])c1
- outcome: inactive

SMILES: O=P(O)(O)CN1CCNCCN(CP(=O)(O)O)CC1
- EC50: > 100 µM
- IC50: 70.8 µM

SMILES: Cc1cc(NC(=O)c2ccc(N=Nc3cc(S(=O)(=O)O)c4ccccc4c3O)cc2)ccc1N=Nc1ccc2cc(S(=O)(=O)O)cc(S(=O)(=O)O)c2c1
- outcome: active

SMILES: COc1ccc([C@@]23Oc4cc(OC)cc(OC)c4[C@]2(O)[C@H](O)[C@H](C(=O)N(C)C)[C@H]3c2ccccc2)cc1
- EC50: > 200 µM
- IC50: 0.0631 µM

SMILES: O=[N+]([O-])/C(Cl)=C(\Nc1ccccc1)C(Cl)=C(Cl)Cl
- EC50: > 200 µM
- IC50: 32.4 µM

SMILES: CN(C)NC1=NS(=O)(=O)c2cc3c(cc2S1)N(N(C)C)C(=O)c1cc2c(cc1N(N(C)C)C3=O)SC(NN(C)C)=NS2(=O)=O
- EC50: > 200 µM
- IC50: 141 µM

SMILES: COC(=O)[C@@H](Cc1ccccc1)NNC(=O)OC(C)(C)C
- EC50: > 851 µM
- IC50: 437 µM

SMILES: CC(=O)OC1CC2(c3ccccc3)C(=O)c3ccccc3N2O1 (stereo unspecified)
- EC50: > 115 µM
- IC50: > 115 µM

SMILES: COc1cc2c(cc1OC)/C(=C\c1ccccc1N)C(=O)OC2
- outcome: inactive

SMILES: [N-]=[N+]=Nc1c(C=O)c(=O)n2c3c(cccc13)CCC2
- EC50: > 200 µM
- IC50: 4.27 µM

SMILES: O=C1CSC(c2ccc(Cl)cc2)N1N1C(=O)CSC1c1ccc(Cl)cc1 (stereo unspecified)
- EC50: > 151 µM
- IC50: > 151 µM

SMILES: COC(=O)C1C(c2ccccc2)=N[C@@H](c2ccccc2)[C@H]1C(=O)OC (stereo partly specified)
- EC50: > 11.2 µM
- IC50: > 11.2 µM

SMILES: O=C(O)C1=CC(=C(c2ccc(O)c(C(=O)O)c2)c2ccc(O)c(C(=O)O)c2)C=CC1=O
- EC50: > 1660 µM
- IC50: > 1660 µM

SMILES: COc1ccc(N=C(Nc2ccc(OC)cc2)C(=Nc2ccc(OC)cc2)Nc2ccc(OC)cc2)cc1
- EC50: > 200 µM
- IC50: 28.2 µM

SMILES: Cc1nc(C)c(C(=O)NNC(=O)Cc2ccccc2)cc1C(=O)NNC(=O)Cc1ccccc1
- EC50: > 200 µM
- IC50: > 200 µM

SMILES: C=C(C)[C@@]1(OC(=O)c2cc([N+](=O)[O-])cc([N+](=O)[O-])c2)C[C@@H]2CCCC[C@@H]21
- outcome: inactive
